This note sets out measurements from publication doi:10.1101/2025.10.20.683491v1 (biorxiv, 2025).

Where only a bound is given, the exact number is not on record here.

In general, IC50 refers to the point on the concentration scale where inhibition reaches its midpoint.

The target of this series is hERG channel (Homo sapiens, UniProt Q12809, species not given). In words: hERG channel inhibition assay. Type of series: cell-based. In general terms: Block of hERG is tested as a sign of cardiac risk.
hERG channel, sequence (Q12809 whole entry): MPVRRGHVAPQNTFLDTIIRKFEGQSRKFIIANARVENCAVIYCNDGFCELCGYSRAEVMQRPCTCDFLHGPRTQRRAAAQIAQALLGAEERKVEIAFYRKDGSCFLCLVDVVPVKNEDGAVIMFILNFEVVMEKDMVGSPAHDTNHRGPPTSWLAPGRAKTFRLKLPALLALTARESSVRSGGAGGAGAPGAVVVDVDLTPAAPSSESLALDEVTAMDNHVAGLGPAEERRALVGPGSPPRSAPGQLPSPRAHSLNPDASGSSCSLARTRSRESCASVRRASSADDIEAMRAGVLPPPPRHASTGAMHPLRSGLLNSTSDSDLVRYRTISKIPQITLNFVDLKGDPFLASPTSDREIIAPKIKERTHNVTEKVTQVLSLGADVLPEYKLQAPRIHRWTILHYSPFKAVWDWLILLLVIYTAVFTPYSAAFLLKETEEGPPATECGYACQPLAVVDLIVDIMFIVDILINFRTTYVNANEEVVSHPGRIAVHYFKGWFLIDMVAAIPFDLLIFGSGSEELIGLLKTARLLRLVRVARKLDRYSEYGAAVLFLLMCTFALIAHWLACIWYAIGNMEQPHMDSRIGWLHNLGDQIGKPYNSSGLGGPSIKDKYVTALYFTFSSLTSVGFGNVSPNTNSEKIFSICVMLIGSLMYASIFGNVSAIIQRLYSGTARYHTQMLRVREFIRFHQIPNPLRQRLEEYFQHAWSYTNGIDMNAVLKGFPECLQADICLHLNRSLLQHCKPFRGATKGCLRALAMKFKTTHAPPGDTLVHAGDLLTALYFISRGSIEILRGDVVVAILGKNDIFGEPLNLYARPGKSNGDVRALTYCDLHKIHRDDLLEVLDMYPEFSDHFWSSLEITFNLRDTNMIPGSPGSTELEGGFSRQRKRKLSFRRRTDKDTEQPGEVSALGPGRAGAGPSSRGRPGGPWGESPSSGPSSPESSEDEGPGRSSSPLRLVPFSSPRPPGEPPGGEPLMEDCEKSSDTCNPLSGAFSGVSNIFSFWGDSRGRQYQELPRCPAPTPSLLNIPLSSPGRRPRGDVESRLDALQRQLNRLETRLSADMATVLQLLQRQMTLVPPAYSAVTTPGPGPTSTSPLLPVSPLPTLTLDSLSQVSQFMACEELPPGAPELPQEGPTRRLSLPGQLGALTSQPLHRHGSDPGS

For the molecule `CNC(=O)C[C@@H](NC(=O)C[C@H](Cc1c[nH]c2ccccc12)NC(=O)[C@@H]1CCCC[C@H]1NCc1cnc(-c2sc(C)nc2C)o1)c1ccccc1` [DEL-C1], the IC50 is more than 100 µM.
